# Laboratory results as given in ChEMBL document CHEMBL1201862, “PubChem BioAssay data set” (2004).
#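 Briefly, cells in 96-well plates were exposed to five compound concentrations for 48 h, and endpoints were estimated by linear interpolation. Abbreviation: GI50, concentration required for 50% inhibition of growth.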 The source made the active and inactive calls. No stated cut-off is given here; in the data, active = GI50 up to about 1.1 µM and inactive = higher.
# Experiments:
# Assay in all cases: DTP human tumour cell line panel, 48 h
# [1] = test system: 786-0
# [2] = test system: A549
# [3] = test system: ACHN
# [4] = test system: CAKI-1
# [5] = test system: COLO 205
# [6] = test system: DLD-1
# [7] = test system: DMS-273
# [8] = test system: EKVX
# [9] = test system: HCC 2998
# [10] = test system: HL-60
# [11] = test system: HOP-18
# [12] = test system: HOP-62
# [13] = test system: HOP-92
# [14] = test system: HT-29
# [15] = test system: KM-20L2
# [16] = test system: KM12
# [17] = test system: LOX IMVI
# [18] = test system: LXFL 529
# [19] = test system: M14
# [20] = test system: M19-MEL
# [21] = test system: Malme-3M
# [22] = test system: NCI-H226
# [23] = test system: NCI-H23
# [24] = test system: NCI-H460
# [25] = test system: NCI-H522
# [26] = test system: OVCAR-3
# [27] = test system: OVCAR-4
# [28] = test system: OVCAR-5
# [29] = test system: OVCAR-8
# [30] = test system: RXF 393
# [31] = test system: SF-268
# [32] = test system: SF-295
# [33] = test system: SF-539
# [34] = test system: SK-MEL-28
# [35] = test system: SK-MEL-2
# [36] = test system: SK-MEL-5
# [37] = test system: SN12C
# [38] = test system: SNB-19
# [39] = test system: SNB-75
# [40] = test system: SNB-78
# [41] = test system: SW-620
# [42] = test system: TK-10
# [43] = test system: U-251
# [44] = test system: UACC-257
# [45] = test system: UO-31
# [46] = test system: A498
# [47] = test system: BT-549
# [48] = test system: CCRF-CEM
# [49] = test system: DU-145
# [50] = test system: HCT-116
# [51] = test system: HCT-15
# [52] = test system: Hs-578T
# [53] = test system: IGROV-1
# [54] = test system: K562
# [55] = test system: MCF7
# [56] = test system: MDA-MB-231
# [57] = test system: MDA-MB-435
# [58] = test system: MDA-N
# [59] = test system: MOLT-4
# [60] = test system: NCI/ADR-RES
# [61] = test system: PC-3
# [62] = test system: RPMI-8226
# [63] = test system: SK-OV-3
# [64] = test system: SR
# [65] = test system: T47D
# [66] = test system: UACC-62
structure (smiles),measurement,setting,value
CCc1cc(C)cc2[n+]1CC=C2C.[O-][Cl+3]([O-])([O-])[O-],GI50,[1],> 100000 nM (inactive)
same,GI50,[2],> 100000 nM (inactive)
same,GI50,[3],> 100000 nM (inactive)
same,GI50,[4],65900 nM (inactive)
same,GI50,[5],> 100000 nM (inactive)
same,GI50,[6],> 100000 nM (inactive)
same,GI50,[7],92000 nM (inactive)
same,GI50,[8],> 100000 nM (inactive)
same,GI50,[9],> 100000 nM (inactive)
same,GI50,[10],18200 nM (inactive)
same,GI50,[11],1720 nM (inactive)
same,GI50,[12],> 100000 nM (inactive)
same,GI50,[13],8630 nM (inactive)
same,GI50,[14],> 100000 nM (inactive)
same,GI50,[15],> 100000 nM (inactive)
same,GI50,[16],> 100000 nM (inactive)
same,GI50,[17],> 100000 nM (inactive)
same,GI50,[18],80500 nM (inactive)
same,GI50,[19],> 100000 nM (inactive)
same,GI50,[20],> 100000 nM (inactive)
same,GI50,[21],35000 nM (inactive)
same,GI50,[22],> 100000 nM (inactive)
same,GI50,[23],66100 nM (inactive)
same,GI50,[24],> 100000 nM (inactive)
same,GI50,[25],49700 nM (inactive)
same,GI50,[26],93100 nM (inactive)
same,GI50,[27],> 100000 nM (inactive)
same,GI50,[28],> 100000 nM (inactive)
same,GI50,[29],> 100000 nM (inactive)
same,GI50,[30],27300 nM (inactive)
same,GI50,[31],> 100000 nM (inactive)
same,GI50,[32],> 100000 nM (inactive)
same,GI50,[33],> 100000 nM (inactive)
same,GI50,[34],> 100000 nM (inactive)
same,GI50,[35],> 100000 nM (inactive)
same,GI50,[36],> 100000 nM (inactive)
same,GI50,[37],> 100000 nM (inactive)
same,GI50,[38],> 100000 nM (inactive)
same,GI50,[39],> 100000 nM (inactive)
same,GI50,[40],> 100000 nM (inactive)
same,GI50,[41],> 100000 nM (inactive)
same,GI50,[42],> 100000 nM (inactive)
same,GI50,[43],> 100000 nM (inactive)
same,GI50,[44],27300 nM (inactive)
same,GI50,[45],> 100000 nM (inactive)
C/C(=N\Nc1nc2cc(C(F)(F)F)ccc2s1)c1ccccn1,GI50,[1],340 nM (active)
same,GI50,[46],1520 nM (inactive)
same,GI50,[2],593 nM (active)
same,GI50,[3],113 nM (active)
same,GI50,[47],3350 nM (inactive)
same,GI50,[4],53.7 nM (active)
same,GI50,[48],85.3 nM (active)
same,GI50,[5],44.2 nM (active)
same,GI50,[49],401 nM (active)
same,GI50,[8],43.1 nM (active)
same,GI50,[9],2600 nM (inactive)
same,GI50,[50],78.3 nM (active)
same,GI50,[51],99.3 nM
same,GI50,[10],127 nM (active)
same,GI50,[12],2410 nM (inactive)
same,GI50,[13],593 nM (active)
same,GI50,[14],42.2 nM (active)
same,GI50,[52],1910 nM (inactive)
same,GI50,[53],123 nM (active)
same,GI50,[54],266 nM (active)
same,GI50,[16],526 nM (active)
same,GI50,[17],287 nM (active)
same,GI50,[19],282 nM (active)
same,GI50,[55],75.3 nM (active)
same,GI50,[56],55.5 nM (active)
same,GI50,[57],469 nM (active)
same,GI50,[58],1060 nM (active)
same,GI50,[59],26.4 nM (active)
same,GI50,[21],62.2 nM (active)
same,GI50,[22],124 nM (active)
same,GI50,[23],452 nM (active)
same,GI50,[24],452 nM (active)
same,GI50,[25],111 nM (active)
same,GI50,[60],291 nM (active)
same,GI50,[26],826 nM (active)
same,GI50,[27],321 nM (active)
same,GI50,[28],2470 nM (inactive)
same,GI50,[29],62.1 nM (active)
same,GI50,[61],1670 nM (inactive)
same,GI50,[62],402 nM (active)
same,GI50,[30],1360 nM (inactive)
same,GI50,[31],333 nM (active)
same,GI50,[32],408 nM (active)
same,GI50,[33],1420 nM (inactive)
same,GI50,[34],211 nM (active)
same,GI50,[35],594 nM (active)
same,GI50,[36],338 nM (active)
same,GI50,[63],245 nM (active)
same,GI50,[37],230 nM (active)
same,GI50,[38],968 nM (active)
same,GI50,[39],1980 nM (inactive)
same,GI50,[64],62.4 nM (active)
same,GI50,[41],102 nM (active)
same,GI50,[65],239 nM (active)
same,GI50,[42],2520 nM (inactive)
same,GI50,[43],448 nM (active)
same,GI50,[44],452 nM (active)
same,GI50,[66],303 nM (active)
same,GI50,[45],31.6 nM (active)
COc1cc(C2c3cc4c(cc3OC(NNc3ccccc3)C2C)OCO4)cc(OC)c1O (stereo not drawn),GI50,[1],3180 nM (inactive)
same,GI50,[46],3850 nM (inactive)
same,GI50,[2],1410 nM (inactive)
same,GI50,[3],159 nM (active)
same,GI50,[47],11400 nM (inactive)
same,GI50,[4],3330 nM (inactive)
same,GI50,[48],463 nM (active)
same,GI50,[5],2930 nM (inactive)
same,GI50,[49],2620 nM (inactive)
same,GI50,[8],7800 nM (inactive)
same,GI50,[9],331 nM (active)
same,GI50,[50],1520 nM (inactive)
same,GI50,[51],313 nM
same,GI50,[10],1260 nM (inactive)
same,GI50,[12],5660 nM (inactive)
same,GI50,[13],9200 nM (inactive)
same,GI50,[14],1230 nM (inactive)
same,GI50,[52],2830 nM (inactive)
same,GI50,[53],3200 nM (inactive)
same,GI50,[54],89.3 nM (active)
same,GI50,[16],251 nM (active)
same,GI50,[17],49 nM (active)
same,GI50,[19],255 nM (active)
same,GI50,[55],2700 nM (inactive)
same,GI50,[56],1120 nM (inactive)
same,GI50,[57],204 nM (active)
same,GI50,[58],294 nM (active)
same,GI50,[59],275 nM (active)
same,GI50,[21],3420 nM (inactive)
same,GI50,[22],3560 nM (inactive)
same,GI50,[23],5600 nM (inactive)
same,GI50,[24],337 nM (active)
same,GI50,[25],561 nM (active)
same,GI50,[60],1070 nM (active)
same,GI50,[26],2360 nM (inactive)
same,GI50,[27],13300 nM (inactive)
same,GI50,[28],3210 nM (inactive)
same,GI50,[29],1520 nM (inactive)
same,GI50,[61],815 nM (active)
same,GI50,[62],995 nM (active)
same,GI50,[30],1920 nM (inactive)
same,GI50,[31],2580 nM (inactive)
same,GI50,[32],813 nM (active)
same,GI50,[33],596 nM (active)
same,GI50,[34],4220 nM (inactive)
same,GI50,[35],724 nM (active)
same,GI50,[36],1300 nM (inactive)
same,GI50,[63],3790 nM (inactive)
same,GI50,[37],540 nM (active)
same,GI50,[38],6640 nM (inactive)
same,GI50,[39],2330 nM (inactive)
same,GI50,[64],207 nM (active)
same,GI50,[41],2590 nM (inactive)
same,GI50,[65],757 nM (active)
same,GI50,[42],4630 nM (inactive)
same,GI50,[43],2550 nM (inactive)
same,GI50,[44],1480 nM (inactive)
same,GI50,[66],132 nM (active)
same,GI50,[45],1030 nM (active)
